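Where inhibition never reached the appropriate level, the endpoint shown equals the highest concentration tested. Otherwise, values were interpolated linearly from a five-concentration, 48-hour dose response in 96-well plates. Abbreviation: GI50, concentration required for 50% inhibition of growth.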 Activity calls are given as the source filed them. No stated cut-off is given here; in the data, active = GI50 up to about 1.1 µM and inactive = higher.
Tests used:
Experiment in all cases: NCI tumour cell line growth inhibition, 48 h
[1] = test system: DMS-114
[2] = test system: HOP-18
[3] = test system: SNB-78
[4] = test system: KM-20L2
[5] = test system: DMS-273
[6] = test system: MDA-N
[7] = test system: LXFL 529
[8] = test system: XF498

Row | SMILES | GI50 [6] | also measured
1 | COc1cc2c(cc1OC)C(SC)C(=O)N(Cc1cccc(OC)c1OC)CC2 (stereo unspecified) | 0.297 µM (active) | GI50 [1]: 0.621 µM (active); GI50 [2]: 1.49 µM (inactive); GI50 [3]: 0.359 µM (active); GI50 [4]: 1.19 µM (inactive); GI50 [5]: 0.553 µM (active); GI50 [7]: 2.84 µM (inactive)
2 | COc1ccc(C=O)cc1OS(=O)(=O)C(F)(F)C(F)(F)C(F)(F)C(F)(F)F | 19 µM (inactive) | 
3 | c1ccc2c(c1)ncn2C1CCCCO1 (stereo unspecified) | > 100 µM (inactive) | 
4 | COc1cc(/C=C2\C(=O)N(C(=O)c3ccc(NC(C)=O)cc3)N=C2C)ccc1O |  | GI50 [1]: > 100 µM (inactive); GI50 [2]: > 100 µM (inactive); GI50 [3]: > 100 µM (inactive); GI50 [5]: > 100 µM (inactive)
5 | CCN(CC)CCCn1cnc2ncccc2c1=O |  | GI50 [1]: > 100 µM (inactive); GI50 [3]: > 100 µM (inactive); GI50 [5]: > 100 µM (inactive); GI50 [7]: > 100 µM (inactive)
6 | Cc1cc(C)n(C(=O)CSc2nc3ccc(I)cc3c(=O)n2Cc2ccccc2)n1 | > 100 µM (inactive) | 
7 | Cc1c(C(=O)/C=C/c2ccc(N(C)C)cc2)c(=O)n(-c2ccccc2)n1C |  | GI50 [1]: > 100 µM (inactive); GI50 [3]: > 100 µM (inactive); GI50 [4]: > 100 µM (inactive); GI50 [5]: > 100 µM (inactive); GI50 [7]: > 100 µM (inactive); GI50 [8]: > 100 µM (inactive)
8 | C/C(=C/CNc1ncnc2c1ncn2CCC#N)CO | > 100 µM (inactive) | 
9 | Cc1cc2c(c(O)c1-c1c(C)cc(O)c3c1C(=O)C=CC3=O)C(=O)C=CC2=O | 1.46 µM (inactive) | 
10 | COC(=O)/C=C\C(C#N)(C#N)/N=C/c1ccc(C)s1 | 2.49 µM (inactive) | 
11 | CC(=O)N(C(C)=O)n1c(Cc2ccc(Cl)cc2)n[nH]c1=O | > 100 µM (inactive) | 
12 | Cc1ccc(-c2cc(=S)n(-c3ccccc3)c3[nH]c(=S)n(-c4ccccc4)c(=N)c23)cc1 |  | GI50 [1]: > 100 µM (inactive); GI50 [4]: > 100 µM (inactive); GI50 [5]: > 100 µM (inactive); GI50 [7]: > 100 µM (inactive)
13 | COC(=O)CCCCC/C(=C\C(=O)C(Cl)(Cl)Cl)OC | 24 µM (inactive) | 
14 | C[n+]1ccc(/C2=C3\C=CC(=N3)/C(c3cc[n+](C)cc3)=c3/cc/c([nH]3)=C(\c3cc[n+](C)cc3)C3=N/C(=C(/c4cc[n+](C)cc4)C4C=CC2N4)C=C3)cc1 | > 100 µM (inactive) | 
15 | Cc1c2c(n(CC(c3ccccc3)c3ccccc3)c1C)NN=C(C#N)S2(=O)=O | > 100 µM (inactive) | 
16 | CC(C)(CO)CNc1nc(N)nc(Cl)c1C=O | 25.5 µM (inactive) | 

Row | SMILES | GI50 [6] | also measured
17 | CCCCCCCCCCCCNC(C)=O | 16.7 µM (inactive) | 
18 | N#CC[N+]1(Cc2ccccn2)CCCC1.O=S(=O)([O-])c1ccccc1 | > 100 µM (inactive) | 
19 | Cc1nc2ccc(S(=O)(=O)Nc3ccccn3)cc2c(=O)n1NS(=O)(=O)c1ccccn1 | > 100 µM (inactive) | 
20 | O=c1c(Nc2ccccc2)cn(CCOc2ccccc2)c(=O)n1CCOc1ccccc1 | > 100 µM (inactive) | 
21 | COC1=C2CC(C)CC(OC)[C@@H](OC(=O)CCN)[C@H](C)/C=C(\C)C(OC(N)=O)C(OC)/C=C\C=C(/C)C(=O)NC(=CC1=O)C2=O (stereo partly specified) | 0.78 µM (active) | 
22 | COc1ccc([C@@]23Oc4cc(OC)cc(OC)c4[C@]2(O)[C@H](O)[C@H](C(N)=O)[C@H]3c2ccccc2)cc1 [DIDESMETHYLROCAGLAMIDE] | < 0.01 µM (active) | 
23 | COC1/C=C/C(C)C(C(C)C(OC)C(C)CCC(=O)C(C)C(CC(=O)O)OC)OC(=O)/C=C/C=C(\C)CC(OC)C(OC)C2=CC(=O)O[C@@H](C(C)C(OC)CC(OC)/C=C/C(C)C(O)C1)[C@H]2O (stereo partly specified) | 0.0785 µM (active) | 
24 | O=C(c1ccccc1)c1ccc(N2C(=O)/C(=C/c3ccccc3S)N=C2c2ccccc2)c(N2C(=O)/C(=C/c3ccccc3S)N=C2c2ccccc2)c1 | 36.5 µM (inactive) | 
25 | CC(=O)c1c(SCCN2CCOCC2)n(-c2ccccc2)c(=S)n(-c2ccccc2)c1=O | 18.8 µM (inactive) | 
26 | CSc1nnc(SC)nn1 | 16.1 µM (inactive) | 
27 | CC1(CF)SCc2nc3ccccc3n21 (stereo unspecified) | > 100 µM (inactive) | 
28 | COc1ccc(Cn2c(=O)c(OC)c(C)c3cc4ccccc4cc32)cc1 | 34.3 µM (inactive) | 
29 | CSC1=C(C#N)C(=O)N(c2ccc(C)cc2)C(=O)C1C#N (stereo unspecified) | > 100 µM (inactive) | 
30 | CCC1CN2CCc3c([nH]c4ccccc34)[C@@](C(=O)OC)(c3cc4c(cc3OC)N(C)C3C(O)(C(=O)OC)C(C(=O)OC)C5(CC)C=CCN6CCC43C65)C[C@@H](C2)[C@@H]1C(C)(C)C (stereo partly specified) | 0.187 µM (active) | 
31 | Cc1cc(=O)[nH]c(-n2[nH]c3c(c2=O)CCCC3)n1 | > 100 µM (inactive) | 

— ChEMBL document CHEMBL1201862, “PubChem BioAssay data set” (2004)
